Experimental data taken from the NIST ThermoML archive (doi:10.1021/je800497u).

Test: xn = mol fraction of the nth substance listed
Settings: 101 kPa, Liquid

CCCCCO [pentan-1-ol] + CCCCCCCO
x1 = 1
Settings | mass density [kg/m3] | viscosity [mPa·s]
293.15 K | 814.6 | 4.029
298.15 K | 811 | 3.494

CCCCCCCCCCCO [1-undecanol] + CCCCCO
Settings | mass density, 293.15 K [kg/m3] | mass density, 298.15 K [kg/m3] | viscosity, 293.15 K [mPa·s] | viscosity, 298.15 K [mPa·s]
x2 = 0 | 832.5 | 829 | 17.18 | 14.02
x2 = 0.1218 | 830.3 | 826.9 | 15.92 | 13.04
x2 = 0.2312 | 829.1 | 825.7 | 13.84 | 11.4
x2 = 0.3167 | 828 | 824.6 | 12.28 | 10.14
x2 = 0.4002 | 826.9 | 823.5 | 11.17 | 9.277
x2 = 0.5076 | 825.2 | 821.8 | 9.516 | 7.956
x2 = 0.6003 | 823.7 | 820.3 | 8.205 | 6.902
x2 = 0.6977 | 822 | 818.5 | 6.943 | 5.846
x2 = 0.7982 | 819.8 | 816.3 | 5.804 | 4.908
x2 = 0.8954 | 817.5 | 813.9 | 4.87 | 4.16

CCCO [propan-1-ol] + CCCCCCCCCO
x1 = 1
Settings | mass density [kg/m3] | viscosity [mPa·s]
293.15 K | 803.5 | 2.272
298.15 K | 799.6 | 1.966

CCCCCCCCCCCO [1-undecanol] + CCCO
Settings | mass density, 293.15 K [kg/m3] | mass density, 298.15 K [kg/m3] | viscosity, 293.15 K [mPa·s] | viscosity, 298.15 K [mPa·s]
x2 = 0 | 832.5 | 829 | 17.18 | 14.02
x2 = 0.1283 | 830.7 | 827.3 | 15.08 | 12.37
x2 = 0.2079 | 829.6 | 826.2 | 13.44 | 11.11
x2 = 0.3145 | 827.9 | 824.4 | 11.56 | 9.558
x2 = 0.4057 | 826.1 | 822.6 | 10.06 | 8.394
x2 = 0.5075 | 824 | 820.5 | 8.321 | 6.998
x2 = 0.6096 | 821.3 | 817.7 | 6.814 | 5.804
x2 = 0.6937 | 818.7 | 815.1 | 5.634 | 4.823
x2 = 0.7922 | 815 | 811.4 | 4.399 | 3.808
x2 = 0.8907 | 810.3 | 806.5 | 3.274 | 2.857

CCCCCCCCCO [nonan-1-ol] + CCCCCCCO
Settings | mass density, 293.15 K [kg/m3] | mass density, 298.15 K [kg/m3] | viscosity, 293.15 K [mPa·s] | viscosity, 298.15 K [mPa·s]
x2 = 0 | 827.9 | 824.4 | 11.68 | 9.671
x2 = 0.1181 | 827 | 823.6 | 11.16 | 9.249
x2 = 0.2245 | 826.6 | 823.2 | 10.56 | 8.777
x2 = 0.307 | 826.2 | 822.8 | 10.02 | 8.328
x2 = 0.4093 | 825.7 | 822.3 | 9.551 | 7.951
x2 = 0.5045 | 825.1 | 821.7 | 9.146 | 7.628
x2 = 0.5969 | 824.7 | 821.2 | 8.61 | 7.211
x2 = 0.6924 | 824.2 | 820.7 | 8.347 | 6.976
x2 = 0.7866 | 823.6 | 820.2 | 7.968 | 6.662
x2 = 0.8883 | 823 | 819.5 | 7.439 | 6.266

CCCCCCCO [heptan-1-ol] + CCCCCCCCCCCO
x1 = 1
Settings | mass density [kg/m3] | viscosity [mPa·s]
293.15 K | 822.2 | 7.104
298.15 K | 818.7 | 5.993

CCCO [propan-1-ol] + CCCCCO
x1 = 1
Settings | mass density [kg/m3] | viscosity [mPa·s]
293.15 K | 803.5 | 2.272
298.15 K | 799.6 | 1.966

CCCCCO [pentan-1-ol] + CCCCCCCCCO
x1 = 1
Settings | mass density [kg/m3] | viscosity [mPa·s]
293.15 K | 814.6 | 4.029
298.15 K | 811 | 3.494

CCCCCCCCCO [nonan-1-ol] + CCCO
Settings | mass density, 293.15 K [kg/m3] | mass density, 298.15 K [kg/m3] | viscosity, 293.15 K [mPa·s] | viscosity, 298.15 K [mPa·s]
x2 = 0 | 827.9 | 824.4 | 11.68 | 9.671
x2 = 0.0808 | 826.5 | 823.1 | 10.86 | 9.007
x2 = 0.2286 | 824.6 | 821.2 | 9.037 | 7.55
x2 = 0.3296 | 823.1 | 819.6 | 7.921 | 6.701
x2 = 0.4104 | 821.7 | 818.2 | 7.097 | 6.002
x2 = 0.5176 | 819.5 | 816 | 6.051 | 5.147
x2 = 0.6051 | 817.6 | 814 | 5.268 | 4.513
x2 = 0.6801 | 815.5 | 811.9 | 4.501 | 3.904
x2 = 0.7961 | 811.9 | 808.3 | 3.583 | 3.129
x2 = 0.8945 | 808.3 | 804.5 | 2.9 | 2.554

CCCCCCCO [heptan-1-ol] + CCCCCCCCCO
x1 = 1
Settings | mass density [kg/m3] | viscosity [mPa·s]
293.15 K | 822.2 | 7.104
298.15 K | 818.7 | 5.993

CCCCCCCCCO [nonan-1-ol] + CCCCCCCCCCCO
x1 = 1
Settings | mass density [kg/m3] | viscosity [mPa·s]
293.15 K | 827.9 | 11.68
298.15 K | 824.4 | 9.671

CCCCCCCO [heptan-1-ol] + CCCO
Settings | mass density, 293.15 K [kg/m3] | mass density, 298.15 K [kg/m3] | viscosity, 293.15 K [mPa·s] | viscosity, 298.15 K [mPa·s]
x2 = 0 | 822.2 | 818.7 | 7.104 | 5.993
x2 = 0.09 | 821.2 | 817.7 | 6.596 | 5.614
x2 = 0.1795 | 820.2 | 816.7 | 6.08 | 5.158
x2 = 0.3279 | 818.2 | 814.6 | 5.288 | 4.519
x2 = 0.4103 | 816.9 | 813.3 | 4.862 | 4.174
x2 = 0.5058 | 815.3 | 811.7 | 4.282 | 3.714
x2 = 0.6106 | 813.5 | 809.8 | 3.825 | 3.342
x2 = 0.6991 | 811.6 | 807.9 | 3.443 | 3.009
x2 = 0.7989 | 809.3 | 805.6 | 3.011 | 2.634
x2 = 0.8882 | 807 | 803.2 | 2.643 | 2.34

CCCCCCCCCO [nonan-1-ol] + CCCCCO
Settings | mass density, 293.15 K [kg/m3] | mass density, 298.15 K [kg/m3] | viscosity, 293.15 K [mPa·s] | viscosity, 298.15 K [mPa·s]
x2 = 0 | 827.9 | 824.4 | 11.68 | 9.671
x2 = 0.1155 | 826.6 | 823.1 | 10.72 | 8.891
x2 = 0.2155 | 825.6 | 822.2 | 9.71 | 8.083
x2 = 0.3161 | 824.5 | 821.1 | 8.734 | 7.313
x2 = 0.4052 | 823.6 | 820.1 | 8.071 | 6.815
x2 = 0.5066 | 822.4 | 818.9 | 7.27 | 6.128
x2 = 0.6079 | 821 | 817.5 | 6.582 | 5.55
x2 = 0.7036 | 819.6 | 816.1 | 5.898 | 5.017
x2 = 0.7935 | 818.2 | 814.7 | 5.192 | 4.473
x2 = 0.8913 | 816.6 | 813 | 4.631 | 3.976

CCCO [propan-1-ol] + CCCCCCCO
x1 = 1
Settings | mass density [kg/m3] | viscosity [mPa·s]
293.15 K | 803.5 | 2.272
298.15 K | 799.6 | 1.966

CCCCCCCO [heptan-1-ol] + CCCCCO
Settings | mass density, 293.15 K [kg/m3] | mass density, 298.15 K [kg/m3] | viscosity, 293.15 K [mPa·s] | viscosity, 298.15 K [mPa·s]
x2 = 0 | 822.2 | 818.7 | 7.104 | 5.993
x2 = 0.123 | 821.4 | 818 | 6.696 | 5.692
x2 = 0.2117 | 820.8 | 817.4 | 6.374 | 5.408
x2 = 0.3131 | 820.2 | 816.7 | 6.079 | 5.158
x2 = 0.4177 | 819.4 | 815.9 | 5.758 | 4.899
x2 = 0.5088 | 818.8 | 815.3 | 5.421 | 4.652
x2 = 0.5897 | 818.2 | 814.7 | 5.177 | 4.431
x2 = 0.6996 | 817.3 | 813.8 | 4.887 | 4.189
x2 = 0.7885 | 816.5 | 812.9 | 4.651 | 3.997
x2 = 0.8909 | 815.6 | 812 | 4.287 | 3.717
